Experimental data as given in PMC9181887, “In Vitro Antithrombotic, Hematological Toxicity, and Inhibitor Studies of Protocatechuic, Isovanillic, and p-Hydroxybenzoic Acids from Maclura tricuspidata (Carr.) Bur” (Molecules, 2022).

Test system: human platelet-poor plasma
Test: Recalcification time assay
Format: biochemical
Method: Figure 5 Effect of PA (A), IVA (B), and 4-HA (C) on recalcification time and plasma density. Human platelet-poor plasma was mixed with PA, IVA, and 4-HA dissolved in DMSO in 96-well plates and incubated for 10 min at 37 °C. Thereafter, 100 mM pre-warmed CaCl2 was added to the mixture and absorbance was taken every 60 s at 650 nm for 30 min in a microplate reader. The plasma density was presented as the optical density at 650 nm after 30 min. The half time (s) was presented as reaching a half-maximum absorbance value. NC1, plasma only; NC2, plasma treated with CaCl2; PC, positive control group (1 U heparin); PA1–20, 1–20 μg of PA treated; IVA1–20, 1–20 μg of IVA treated; 4-HA1–20, 1–20 μg of 4-HA treated.
Recalcification time was measured in a 96-well plate, according to a previously described method, with slight modifications. First, 50 μL of human platelet-poor plasma was mixed with 50 μL of the compounds, vehicle as NC2, or 1 U heparin as PC, and incubated at 37 °C for 10 min. Thereafter, 100 mM pre-warmed CaCl2 was added to the mixture and absorbance was measured at 650 nm every 1 min for 30 min using a microplate reader. The plasma density was presented as the absorbance at 650 nm after 30 min. The half time was presented as reaching a half-maximum absorbance value.

## heparin [reference compound]
1U
  plasma coagulation for 1800 s: completely delayed
1 U heparin, 650 nm after 30 min, NC2 0.2094 ± 0.0305
  Absorbance after Reaction: 0.0184 ± 0.0016
